Reference: patent US8263044B2, “Stilbene like compounds as novel HDAC inhibitors” (Orchid Research Laboratories Limited, priority 2005, dated 2012)

Assays:
[1] = system: NCIH460, HCT116, MDAMB231/U251; assay: Anti-cancer screen, mean GI50 over the cell lines; assay type: cell-based; settings: mean over the three cell lines; no unit in table
Protocol: (§1) Experimental drugs are screened for anti-cancer activity in three cell lines for their GI50, TGI and LC50 values (using five concentrations for each compound). The cell lines are maintained in DMEM containing 10% fetal bovine serum. 96 well micro titer plates are inoculated with cells in 100 μL for 24 h at 37° C., 5% CO2, 95% air and 100% relative humidity. 5000 HCT 116 cells/well, 5000 NCIH 460 cells/well and 5000 U251 cells/well are plated. A separate plate with these cell lines is also inoculated to determine cell viability before the addition of the compounds (T0) (See Table I).
(§2) Following 24-hour incubation, experimental drugs are added to the 96 well plates. Each plate contains one of the above cell lines and the following in triplicate: five different concentrations (0.01, 0.1, 1, 10 and 100 μM) of four different compounds, appropriate dilutions of a cytotoxic standard and control (untreated) wells. Compounds are dissolved in DMSO to make 20 mM stock solutions on the day of drug addition and frozen at −20° C. Serial dilutions of these 20 mM stock solutions are made in complete growth medium such that 100 μL of these drug solutions in medium, of final concentrations equaling 0.01, 0.1, 1, 10 and 100 μM can be added to the cells in triplicate. […] (See Table I).
(§3) For T0 measurement, 24 hours after seeding the cells, 10 μL of 3-(4,5-Dimethyl-2-thiazolyl)-2,5-diphenyl-2H-tetrazolium (MTT) solution per well is added and incubation carried out for 3 hours at 37° C., 5% CO2, 95% air and 100% relative humidity, protected from light. Cells incubated with compounds for 48 hours are treated similarly except with the addition of 20 μL MTT solution per well and a subsequent incubation under the same conditions. After 3 hours of MTT incubation, well contents are aspirated carefully followed by addition of 150 μL DMSO per well. Plates are agitated to ensure solution of the formazan crystals in DMSO and absorbance read at 570 nm. (See Table I).
Percent growth is calculated for each compound's concentration relative to the control and zero measurement wells (T0; viability right before compound addition). […]

[2] = system: HDAC activity (Mouse Liver Extract); assay: Histone Deacetylase (HDAC) Inhibition Assay using Boc-Lys (Ac)-AMC Substrate; assay type: biochemical; settings: mouse liver enzyme; for HDAC Inhibition 1 μM: inhibitor at 1 μM; for HDAC Inhibition 1 μM / HDAC Inhibition 10 μM: in % (unit assumed); for HDAC Inhibition 10 μM: inhibitor at 10 μM
Protocol: Histone Deacetylase (HDAC) Inhibition Assay using Boc-Lys (Ac)-AMC Substrate: Inhibition of HDAC has been implicated to modulate transcription and to induce apoptosis or differentiation in cancer cells. The fluorometric assay provides a fast and fluorescence based method that eliminates radioactivity, extractions or chromatography, as used in traditional assays. The assay based on two steps. First, the HDAC fluorometric substrate, which comprises an acetylated lysine side chain, is incubated with a sample containing HDAC activity (Mouse Liver Extract). Deacetylation of the substrate sensitizes the substrate, in the second step; treatment with the Trypsin stop solution produces a fluorophore that can be easily analyzed using fluorescence plate reader.
Assay was done in 96 well black microplate and total volume of the assay is 100 ul. Mouse liver enzyme is diluted 1:6 with HDAC buffer. Enzyme cocktail made of 10 ul of diluted enzyme and 30 ul of HDAC buffer. 40 ul of enzyme cocktail dispensed into each well. 10 ul of different concentrations of inhibitor added in to each well, except enzyme control well. Preincubated the plate at 30° C. for 5 minutes. The HDAC reaction is started by adding 50 ul of HDAC substrate (Boc-Lys (Ac)-AMC Substrate) solution. Incubated the plate at 30° C. for 30 minutes. Adding 100 ul of Trypsin stop solution stops the reaction. The plate is incubated again at 30° C. for 20-30 minutes. The release of AMC is monitored by measuring the fluorescence at excitation wavelength of 365 or 360 nm and emission wavelength of 440 or 460 nm. Buffer and substrate alone kept for blank subtraction. (Dennis Wegener et al, Anal. Biochem, 321, 2003, 202-208).

MDAMB231/U251 [3] = assay: cells; settings: 48 h, read-out: MDAMB231/U251 LC50
HCT 116 cells = assay: cells; settings: Homo sapiens, HCT-116, 48 h; for GI50: read-out: HCT116 GI50; for CC50: read-out: HCT116 LC50
Protocol: as §1, §2, §3
(§4) Percent growth is calculated for each compound's concentration relative to the control and zero measurement wells (T0; viability right before compound addition).
(§5) If a test well's O.D. value is lower than the T0 measurement for that cell line, then, % Growth=(test−zero)/zero×100

MDAMB231/U251 [4] = assay: cells; settings: 48 h, read-out: MDAMB231/U251 GI50
Protocol: as §1, §2, §3, §4, §5

NCIH 460 cells = assay: cells; settings: Homo sapiens, NCI-H460, 48 h; for GI50: read-out: NCIH460 GI50; for CC50: read-out: NCIH460 LC50
Protocol: as §1, §2, §3, §4, §5

Structure (SMILES)	GI50 [1] [µM]	HDAC Inhibition 1 μM [2]	HDAC Inhibition 10 μM [2]	IC50 [2] [µM]	CC50 (MDAMB231/U251 [3]) [µM]	GI50 (HCT 116 cells) [µM]	CC50 (HCT 116 cells) [µM]	GI50 (MDAMB231/U251 [4]) [µM]	GI50 (NCIH 460 cells) [µM]	CC50 (NCIH 460 cells) [µM]
O=C(CCCCCNC(=O)/C(=C\c1ccc(Br)s1)c1ccc(Br)cc1)NO [Example 13, (2Z)-3-(5-Bromo-2-thienyl)-2-(4-bromophenyl)-N-[6-(hydroxyamino)-6-oxohexyl]acrylamide]	5	53.83	89.18	2.95	80	5	70	3	7	75
O=C(CCCCCNC(=O)/C(=C\c1ccncc1)c1ccc(F)cc1)NO [Example 14, (2Z)-3-(4-Pyridine)-2-(4-fluorophenyl)-N-[6-(hydroxyamino)-6-oxohexyl]acrylamide]	> 100	21.1	35.4	–	> 100	> 100	> 100	> 100	> 100	> 100
O=C(CCCCCNC(=O)/C(=C\c1ccncc1)c1ccc(F)cc1)Nc1ccc(O)cc1[N+](=O)[O-] [Example 15]	> 100	1.7	4	–	> 100	> 100	> 100	> 100	> 100	> 100
CSc1ccc(/C=C(\C(=O)NCCCCCC(=O)NO)c2ccc(F)cc2)cc1 [Example 16, (2Z)-3-(4-Thiomethylphenyl)-2-(4-fluorophenyl)-N-[6-(hydroxyamine)-6-oxohexyl]acrylamide]	0.7	68	83	0.061	90	1.9	32	0.15	0.01	24
CSc1ccc(/C=C(\C(=O)NCCCCCC(=O)Nc2ncc([N+](=O)[O-])s2)c2ccc(F)cc2)cc1 [Example 17, (2Z)-3-(4-Thiomethylphenyl)-2-(4-fluorophenyl)-N-[6-(5-nitro-2-thiazoleamine)-6-oxohexyl]acrylamide]	0.3	0.7	2.3	–	> 100	0.03	> 100	0.71	0.25	> 100
CON(C)C(=O)CCCCCNC(=O)/C(=C\c1ccc(SC)cc1)c1ccc(F)cc1 [Example 18, (2Z)-3-(4-Thiomethylphenyl)-2-(4-fluorophenyl)-N-[6-(N,O dimethylamine)-6-oxohexyl]acrylamide]	18.8	2.26	0.89	–	> 100	55	> 100	0.8	0.5	> 100
CSc1ccc(/C=C(\C(=O)NCCCCCC(=O)Nc2nc3cc(C)ccc3s2)c2ccc(F)cc2)cc1 [Example 19, (2Z)-3-(4-Thiomethylphenyl)-2-(4-fluorophenyl)-N-[6-(5-methyl-2-benzothiazoleamine)-6-oxohexyl]acrylamide]	6.9	−22.2	10.2	–	> 100	> 100	> 100	5.8	8	> 100
CSc1ccc(/C=C(\C(=O)NCCCCCC(=O)Nc2nccs2)c2ccc(F)cc2)cc1 [Example 20, (2Z)-3-(4-Thiomethylphenyl)-2-(4-fluorophenyl)-N-[6-(2-thiazoleamine)-6-oxohexyl]acrylamide]	2	–	5.57	–	> 100	> 100	> 100	3	1	> 100
Cc1ncsc1/C=C(\C(=O)NCCCCCC(=O)NO)c1ccc(Br)cc1 [Example 23, (2Z)-3-(4-Methylthiazol-5-yl)-2-(4-bromophenyl)-N-[6-(hydroxyamino)-6-oxohexyl]acrylamide]	2.6	42.7	81.07	1.8	90	6	> 100	1	0.8	> 100
O=C(CCCCCNC(=O)/C(=C\c1ccc(F)c(C(F)(F)F)c1)c1ccc([N+](=O)[O-])cc1)NO [Example 24, (2Z)-3-(4-Fluoro-3-trifluoromethylphenyl)-2-(4-nitrophenyl)-N-[6-(hydroxyamino)-6-oxohexyl]acrylamide]	7.21	46.1	99.5	–	75	5	> 100	0.3	16	82
Cc1ncsc1/C=C(\C(=O)NCCCCCC(=O)NO)c1ccc(C(F)(F)F)cc1 [Example 26, (2Z)-3-(4-Methylthiazol-5-yl)-2-(4-trifluoromethylphenyl)-N-[6-(hydroxyamino)-6-oxohexyl]acrylamide]	17.7	39.38	76.69	–	85	9	100	10	34	> 100
COc1ccc(/C(=C/c2cccc(Cl)c2)C(=O)NCCCCCC(=O)NO)cc1 [Example 28, (2Z)-3-(3-Chlorophenyl)-2-(4-methoxyphenyl)-N-[6-(hydroxyamino)-6-oxohexyl]acrylamide]	6	70.82	90.20	0.44	100	5	45	4	9	82
O=C(CCCCCNC(=O)/C(=C\c1ccccc1[N+](=O)[O-])c1ccc(Cl)cc1)NO [Example 30, (2Z)-3-(2-Nitrophenyl)-2-(4-chlorophenyl)-N-[6-(hydroxyamino)-6-oxohexyl]acrylamide]	13	52.95	84.69	–	> 100	6	> 100	3	30	> 100
O=C(CCCCCNC(=O)/C(=C\c1ccc(F)cc1Cl)c1ccccc1)NO [Example 31, (2Z)-3-(2-Chloro-4-fluorophenyl)-2-(phenyl)-N-[6-(hydroxyamino)-6-oxohexyl]acrylamide]	6.9	72.20	91.49	–	> 100	5	97	6	9.7	> 100
